Measurements published in ChEMBL document CHEMBL5634113, “Synthesis, cytotoxic activity evaluation and mechanistic investigation of novel 3,7-diarylsubstituted 6-azaindoles” (Eur J Med Chem, 2023).
pIC50: −log10 of the molar value. Where a name gives a salt, the structure may show the parent alone. The source made the active and inactive calls. The calls are words filed in the database; no cut-off is given here.

What was measured:
[1] = system: A-431; test: Cytotoxicity against human A-431 cells assessed as inhibition of cell growth incubated for 72 hrs by MTT assay; type: functional, cell-based; conditions: A-431, 72 h
[2] = system: HT-1080; test: Cytotoxicity against human HT-1080 cells assessed as inhibition of cell growth incubated for 72 hrs by MTT assay; type: functional, cell-based; conditions: HT-1080, 72 h
[3] = system: MCF7; test: Cytotoxicity against human MCF7 cells assessed as inhibition of cell growth incubated for 72 hrs by MTT assay; type: functional, cell-based; conditions: MCF7, 72 h
[4] = system: MDA-MB-231; test: Cytotoxicity against human MDA-MB-231 cells assessed as inhibition of cell growth incubated for 72 hrs by MTT assay; type: functional, cell-based; conditions: MDA-MB-231, 72 h
[5] = Cytotoxicity against human AG1523 cells assessed as inhibition of cell growth incubated for 72 hrs by MTT assay; type: toxicity, cell-based
[6] = system: A-431; test: Induction of cell cycle arrest in human A-431 cells assessed as accumulation of cells at G0/G1 phase at 100 nM incubated for 24 hrs by RNase/PI staining based flow cytometry analysis (reference value: 40.98%); type: functional
[7] = system: A-431; test: Induction of cell cycle arrest in human A-431 cells assessed as accumulation of cells at S phase at 100 nM incubated for 24 hrs by RNase/PI staining based flow cytometry analysis (reference value: 43.35%); type: functional
[8] = system: A-431; test: Induction of cell cycle arrest in human A-431 cells assessed as accumulation of cells at G2/M phase at 100 nM incubated for 24 hrs by RNase/PI staining based flow cytometry analysis (reference value: 15.66%); type: functional
[9] = system: A-431; test: Induction of cell cycle arrest in human A-431 cells assessed as accumulation of cells at Sub-diploid phase at 100 nM incubated for 24 hrs by RNase/PI staining based flow cytometry analysis (reference value: 1.82%); type: functional
[10] = molecular target: Dual specificity mitogen-activated protein kinase kinase 1 (Homo sapiens) (UniProt Q02750); test: Inhibition of MEK1 phosphorylation at Ser217/Ser221 residues in human A-431 cells at IC50 measured after 0 to 24 hrs by multiplex immunoassay; type: cell-based; conditions: time 0-24 hrs
Sequence of Dual specificity mitogen-activated protein kinase kinase 1 (Homo sapiens) (Q02750 whole entry): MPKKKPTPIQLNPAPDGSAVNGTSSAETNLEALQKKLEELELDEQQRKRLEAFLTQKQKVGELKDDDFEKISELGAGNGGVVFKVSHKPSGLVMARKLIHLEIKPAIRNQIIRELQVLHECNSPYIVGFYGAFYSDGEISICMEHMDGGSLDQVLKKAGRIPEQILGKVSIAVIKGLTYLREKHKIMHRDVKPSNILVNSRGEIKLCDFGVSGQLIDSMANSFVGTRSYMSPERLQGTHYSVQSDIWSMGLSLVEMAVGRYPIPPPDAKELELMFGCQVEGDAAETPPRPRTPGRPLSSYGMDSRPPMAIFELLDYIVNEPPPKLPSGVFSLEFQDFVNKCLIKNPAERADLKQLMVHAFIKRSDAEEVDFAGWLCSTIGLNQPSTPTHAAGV

[11] = molecular target: Mitogen-activated protein kinase 3 (Homo sapiens) (UniProt P27361); test: Inhibition of ERK1 phosphorylation at Thr202/Tyr204 residues in human A-431 cells at IC50 measured after 0 to 24 hrs by multiplex immunoassay; type: cell-based; conditions: time 0-24 hrs
Sequence of Mitogen-activated protein kinase 3 (Homo sapiens) (P27361 whole entry): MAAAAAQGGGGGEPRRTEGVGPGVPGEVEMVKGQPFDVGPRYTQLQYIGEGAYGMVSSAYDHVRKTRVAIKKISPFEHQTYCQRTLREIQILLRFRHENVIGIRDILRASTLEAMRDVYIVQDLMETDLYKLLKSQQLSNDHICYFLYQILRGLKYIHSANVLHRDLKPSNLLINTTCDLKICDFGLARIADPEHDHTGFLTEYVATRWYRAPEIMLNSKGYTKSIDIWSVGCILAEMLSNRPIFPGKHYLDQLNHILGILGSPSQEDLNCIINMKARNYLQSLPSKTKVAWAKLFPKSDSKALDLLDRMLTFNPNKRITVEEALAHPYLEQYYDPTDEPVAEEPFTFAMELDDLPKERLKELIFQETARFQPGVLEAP

[12] = molecular target: Mitogen-activated protein kinase 1 (Homo sapiens) (UniProt P28482); test: Inhibition of ERK2 phosphorylation at Thr185/Tyr187 residues in human A-431 cells at IC50 measured after 0 to 24 hrs by multiplex immunoassay; type: cell-based; conditions: time 0-24 hrs
Sequence of Mitogen-activated protein kinase 1 (Homo sapiens) (P28482 whole entry): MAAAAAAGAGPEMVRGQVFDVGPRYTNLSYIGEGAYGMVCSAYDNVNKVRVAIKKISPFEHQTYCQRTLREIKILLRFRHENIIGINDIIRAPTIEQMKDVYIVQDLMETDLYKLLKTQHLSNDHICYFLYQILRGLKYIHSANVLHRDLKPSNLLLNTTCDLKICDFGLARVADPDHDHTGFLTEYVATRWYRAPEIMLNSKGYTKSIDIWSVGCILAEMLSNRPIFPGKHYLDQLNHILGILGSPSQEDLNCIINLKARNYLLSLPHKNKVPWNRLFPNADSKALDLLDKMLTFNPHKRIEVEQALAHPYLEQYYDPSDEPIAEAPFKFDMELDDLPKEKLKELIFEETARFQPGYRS

[13] = molecular target: Ribosomal protein S6 kinase alpha-1 (Homo sapiens) (UniProt Q15418); test: Inhibition of p90 RSK phosphorylation at Ser380 residue in human A-431 cells at IC50 measured after 0 to 24 hrs by multiplex immunoassay; type: cell-based; conditions: time 0-24 hrs
Sequence of Ribosomal protein S6 kinase alpha-1 (Homo sapiens) (Q15418 whole entry): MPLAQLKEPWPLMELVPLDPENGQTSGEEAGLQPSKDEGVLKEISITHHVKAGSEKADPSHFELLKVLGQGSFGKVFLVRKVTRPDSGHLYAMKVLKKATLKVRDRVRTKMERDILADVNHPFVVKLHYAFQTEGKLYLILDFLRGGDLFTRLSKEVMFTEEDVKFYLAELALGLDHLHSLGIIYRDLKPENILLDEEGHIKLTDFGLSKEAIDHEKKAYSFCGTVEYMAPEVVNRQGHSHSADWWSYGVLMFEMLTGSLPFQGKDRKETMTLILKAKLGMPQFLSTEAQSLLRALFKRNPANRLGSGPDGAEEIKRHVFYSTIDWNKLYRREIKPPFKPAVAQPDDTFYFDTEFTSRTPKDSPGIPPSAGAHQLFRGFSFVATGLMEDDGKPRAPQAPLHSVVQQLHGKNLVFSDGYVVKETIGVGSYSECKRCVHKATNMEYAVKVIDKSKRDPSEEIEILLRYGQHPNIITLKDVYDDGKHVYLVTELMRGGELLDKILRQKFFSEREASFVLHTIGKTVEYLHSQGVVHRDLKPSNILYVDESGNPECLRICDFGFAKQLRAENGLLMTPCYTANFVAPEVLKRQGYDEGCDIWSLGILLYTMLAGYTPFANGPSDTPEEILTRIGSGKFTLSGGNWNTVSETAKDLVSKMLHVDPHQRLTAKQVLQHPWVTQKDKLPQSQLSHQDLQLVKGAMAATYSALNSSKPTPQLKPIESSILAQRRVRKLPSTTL

[14] = molecular target: Signal transducer and activator of transcription 3 (Homo sapiens) (UniProt P40763); test: Inhibition of STAT3 phosphorylation at Ser727 residue in human A-431 cells at IC50 measured after 0 to 24 hrs by multiplex immunoassay; type: cell-based; conditions: time 0-24 hrs
Sequence of Signal transducer and activator of transcription 3 (Homo sapiens) (P40763 whole entry): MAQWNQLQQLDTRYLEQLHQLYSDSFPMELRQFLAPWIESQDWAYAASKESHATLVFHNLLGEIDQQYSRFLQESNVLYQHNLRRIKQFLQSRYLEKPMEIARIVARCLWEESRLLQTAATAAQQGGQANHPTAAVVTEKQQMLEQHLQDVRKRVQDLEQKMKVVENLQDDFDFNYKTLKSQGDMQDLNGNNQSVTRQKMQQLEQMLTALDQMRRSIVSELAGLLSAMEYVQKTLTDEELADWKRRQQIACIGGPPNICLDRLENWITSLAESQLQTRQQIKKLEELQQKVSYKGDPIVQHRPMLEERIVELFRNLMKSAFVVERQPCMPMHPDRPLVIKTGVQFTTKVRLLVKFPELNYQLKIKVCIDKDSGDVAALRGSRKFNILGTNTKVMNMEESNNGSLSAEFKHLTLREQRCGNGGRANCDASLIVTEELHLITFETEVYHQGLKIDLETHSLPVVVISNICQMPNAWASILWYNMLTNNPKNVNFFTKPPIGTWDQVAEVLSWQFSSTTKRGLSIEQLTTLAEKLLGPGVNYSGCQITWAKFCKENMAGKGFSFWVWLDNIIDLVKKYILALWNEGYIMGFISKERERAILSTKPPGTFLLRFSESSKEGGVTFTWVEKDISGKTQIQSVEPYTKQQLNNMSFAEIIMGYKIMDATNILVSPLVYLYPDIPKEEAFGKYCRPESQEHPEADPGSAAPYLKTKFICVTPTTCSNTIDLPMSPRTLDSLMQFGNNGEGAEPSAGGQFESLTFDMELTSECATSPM

[15] = system: A-431; test: Cytotoxicity against human A-431 cells assessed as increase in mitotic nuclei measured after 6 to 24 hrs by DAPI staining based analysis; type: functional, cell-based; conditions: time 6-24 hrs
[16] = system: A-431; test: Genotoxicity in human A-431 cells assessed as upregulation of ATR total protein level at IC50 measured after 0 to 24 hrs by multiplex immunoassay; type: functional, cell-based; conditions: time 0-24 hrs
[17] = system: A-431; test: Genotoxicity in human A-431 cells assessed as upregulation of phosphorylated Chk1 at Ser345 residue protein level at IC50 measured after 0 to 24 hrs by multiplex immunoassay; type: functional, cell-based; conditions: time 0-24 hrs
[18] = system: A-431; test: Genotoxicity in human A-431 cells assessed as upregulation of phosphorylated Chk2 at Thr68 residue protein level at IC50 measured after 0 to 24 hrs by multiplex immunoassay; type: functional, cell-based; conditions: time 0-24 hrs
[19] = system: A-431; test: Genotoxicity in human A-431 cells assessed as upregulation of phosphorylated p53 at Ser15 residue protein level at IC50 measured after 0 to 24 hrs by multiplex immunoassay; type: functional, cell-based; conditions: time 0-24 hrs
[20] = system: A-431; test: Genotoxicity in human A-431 cells assessed as upregulation of MDM2 total protein level at IC50 measured after 0 to 24 hrs by multiplex immunoassay; type: functional, cell-based; conditions: time 0-24 hrs
[21] = system: A-431; test: Genotoxicity in human A-431 cells assessed as upregulation of p21 total protein level at IC50 measured after 0 to 24 hrs by multiplex immunoassay; type: functional, cell-based; conditions: time 0-24 hrs
[22] = molecular target: Cellular tumor antigen p53 (Homo sapiens) (UniProt P04637); test: Activation of p53 in human A-431 cells assessed as increase in p53 phosphorylation at Ser15 residue at IC50 measured after 0 to 24 hrs by Western blot analysis; type: cell-based; conditions: filed as activator, time 0-24 hrs
Sequence of Cellular tumor antigen p53 (Homo sapiens) (P04637 whole entry, looked up): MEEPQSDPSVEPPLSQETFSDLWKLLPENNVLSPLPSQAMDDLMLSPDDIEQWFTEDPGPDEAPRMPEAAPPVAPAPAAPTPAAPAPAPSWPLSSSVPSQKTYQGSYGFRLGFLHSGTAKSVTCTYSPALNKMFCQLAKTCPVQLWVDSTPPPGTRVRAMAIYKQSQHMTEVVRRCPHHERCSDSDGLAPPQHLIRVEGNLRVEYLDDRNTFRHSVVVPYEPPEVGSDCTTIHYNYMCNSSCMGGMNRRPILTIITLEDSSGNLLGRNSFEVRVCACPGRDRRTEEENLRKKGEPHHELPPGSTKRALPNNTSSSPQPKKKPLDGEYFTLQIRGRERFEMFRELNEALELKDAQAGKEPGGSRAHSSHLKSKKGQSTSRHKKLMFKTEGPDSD

[23] = molecular target: Cyclin-dependent kinase inhibitor 1 (Homo sapiens) (UniProt P38936); test: Activation of p21 waf1 in human A-431 cells assessed as increase in p21 waf1 protein level at IC50 measured after 0 to 24 hrs by Western blot analysis; type: cell-based; conditions: filed as activator, time 0-24 hrs
Sequence of Cyclin-dependent kinase inhibitor 1 (Homo sapiens) (P38936 whole entry): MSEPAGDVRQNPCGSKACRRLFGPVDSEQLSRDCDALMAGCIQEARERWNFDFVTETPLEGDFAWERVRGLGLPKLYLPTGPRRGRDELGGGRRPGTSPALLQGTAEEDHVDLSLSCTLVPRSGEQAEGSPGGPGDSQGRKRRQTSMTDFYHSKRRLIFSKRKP

Structure (SMILES) | pIC50 [1] | pIC50 [2] | pIC50 [3] | pIC50 [4] | IC50 at 72 h [5] | also measured
CC(=O)c1ccc(-c2nccc3c(-c4ccccc4)c[nH]c23)cc1 | 7.00 | 6.28 | 6.19 | 6.57 | > 100 µM | Activity [6]: 14.74%; Activity [7]: 20.32%; Activity [8]: 64.95%; Activity [9]: 39.37%
COc1ccc(Cn2cc(-c3cccc(F)c3)c3ccnc(-c4cccc([N+](=O)[O-])c4)c32)cc1 | < 4.00 | < 4.00 | < 4.00 | < 4.00 | > 100 µM | 
COc1ccc(Cn2cc(-c3ccccc3)c3ccnc(-c4ccc(C(C)=O)cc4)c32)cc1 | < 4.00 | 4.38 | 4.61 | < 4.00 | > 100 µM | 
Fc1cccc(-c2c[nH]c3c(-c4ccccc4)nccc23)c1 | 5.80 | 5.50 | 5.64 | 5.44 | > 100 µM | 
CC(=O)c1ccc(-c2nccc3c(-c4cccc(F)c4)c[nH]c23)cc1 | 6.38 | 6.33 | 6.09 | 6.38 | > 100 µM | 
COc1ccc(Cn2cc(-c3ccccc3)c3ccnc(-c4ccccc4)c32)cc1 | 5.00 | 4.88 | 4.87 | 4.65 | > 100 µM | 
COc1ccc(Cn2cc(-c3ccccc3)c3ccnc(-c4ccc(OC)cc4OC)c32)cc1 | 5.21 | 5.12 | 4.99 | 4.80 | > 100 µM | 
O=[N+]([O-])c1cccc(-c2nccc3c(-c4cccc(F)c4)c[nH]c23)c1 | 5.60 | 6.09 | 5.36 | 5.29 | 49 µM | 
COc1ccc(-c2nccc3c(-c4cccc(F)c4)c[nH]c23)c(OC)c1 | 7.89 | 7.85 | 6.85 | 7.74 | 56.3 µM | Activity [6]: 33%; Activity [7]: 12.97%; Activity [8]: 54.04%; Activity [9]: 29.86%; inhibition [10]: Active; inhibition [11]: Active; inhibition [12]: Active; inhibition [13]: Active; inhibition [14]: Active; Activity [15]: Active; Activity [16]: Active; Activity [17]: Active; Activity [18]: Active; Activity [19]: Active; Activity [20]: Active; Activity [21]: Active; Activity [22]: Active; Activity [23]: Active
COc1cccc2c1C(=O)c1c(O)c3c(c(O)c1C2=O)C[C@@](O)(C(=O)CO)C[C@@H]3O[C@H]1C[C@H](N)[C@H](O)[C@H](C)O1 [DOXORUBICIN HYDROCHLORIDE] | 8.05 | 8.15 | 6.84 | 7.02 |  | 
COc1ccc(Cn2cc(-c3cccc(F)c3)c3ccnc(-c4ccccc4)c32)cc1 | 5.05 | 4.85 | 4.89 | 4.30 | > 100 µM | 
c1ccc(-c2c[nH]c3c(-c4ccccc4)nccc23)cc1 | 6.27 | 6.10 | 5.61 | 5.82 | 85.1 µM | 
COc1ccc(Cn2cc(-c3cccc(F)c3)c3ccnc(-c4ccc(OC)cc4OC)c32)cc1 | 5.27 | 5.06 | 4.94 | 4.74 | > 100 µM | 
COc1ccc(Cn2cc(-c3ccccc3)c3ccnc(-c4cccc([N+](=O)[O-])c4)c32)cc1 | < 4.00 | < 4.00 | < 4.00 | < 4.00 | > 100 µM | 
COc1ccc(Cn2cc(-c3ccccc3)c3ccnc(-c4ccc(Cl)cc4)c32)cc1 | 4.97 | 4.59 | 4.39 | < 4.00 | > 100 µM | 
COc1ccc(Cn2cc(-c3cccc(F)c3)c3ccnc(-c4ccc(Cl)cc4)c32)cc1 | 4.84 | < 4.00 | 4.13 | < 4.00 | > 100 µM | 
Clc1ccc(-c2nccc3c(-c4ccccc4)c[nH]c23)cc1 | 7.70 | 7.25 | 6.46 | 7.29 | > 100 µM | Activity [6]: 20.59%; Activity [7]: 39.69%; Activity [8]: 39.73%; Activity [9]: 33.54%
O=[N+]([O-])c1cccc(-c2nccc3c(-c4ccccc4)c[nH]c23)c1 | 5.59 | 5.51 | 5.48 | 5.36 | > 100 µM | 
COc1ccc(Cn2cc(-c3cccc(F)c3)c3ccnc(-c4ccc(C(C)=O)cc4)c32)cc1 | 4.89 | 4.87 | 5.01 | 4.05 | > 100 µM | 
Fc1cccc(-c2c[nH]c3c(-c4ccc(Cl)cc4)nccc23)c1 | 6.96 | 7.06 | 6.39 | 6.89 | 78.6 µM | 
COc1ccc(-c2nccc3c(-c4ccccc4)c[nH]c23)c(OC)c1 | 7.92 | 7.92 | 7.00 | 7.77 | 79.8 µM | Activity [6]: 26.41%; Activity [7]: 10.27%; Activity [8]: 63.32%; Activity [9]: 40.02%
